Data as given in patent US20230313217A1, “CHLOROPLAST TARGETING PEPTIDES AND CONJUGATES AND COMPOSITIONS THEREOF” (The Regents of the University of California, priority 2021, published 2023).

How the values were obtained:
[1] = tested on: chloroplasts in leaf mesophyll cells; experiment: Chemical cargo (FDA) delivery to chloroplasts, confocal colocalization; assay type: in vivo, Arabidopsis thaliana; conditions: FDA alone
Source text: Chemical Cargo and Plasmid DNA and Delivery to Chloroplasts Mediated by Targeted Nanomaterials. To assess the delivery of chemical cargoes to chloroplasts mediated by TP-β-CD nanocarriers, we loaded β-cyclodextrins with the fluorescent dye […] (FDA) (FIG. 4A). We imaged the localization of FDA within leaf mesophyll tissues by confocal microscopy and quantified the localization of this fluorescence dye with chloroplasts autofluorescence (FIG. 4B,C). Plant leaves treated with TP-β-CD-FDA or TP-β-CD (Table 1) were analyzed for the fluorescence emission crosstalk with confocal microscopy under laser excitation with a 488 nm laser (FIG. 13A). […] When added together with CDs or β-CDs, the FDA was observed both in the intracellular and extracellular space. […] In contrast, when FDA was delivered by TP-β-CDs, most of the FDA fluorescence signal was detected inside leaf mesophyll cells and highly colocalized with chloroplasts (70.0±9.5%) (FIG. 4B). […] Although targeted TP-β-CDs improved the delivery of FDA to chloroplasts in leaf mesophyll cells, the FDA fluorescence signal was localized throughout the entire leaf mesophyll cells. […] Colocalization rates of FDA fluorescence with chloroplasts were determined using Mander's coefficient analysis (COLOC2, ImageJ). […]
Confocal Fluorescence Microscopy. […]

[2] = ζ potential of carbon nanostructures (Zetasizer); assay type: physicochemical; conditions: neutral charge
Procedure: The resulting PEI-SWCNT suspension was characterized by measuring the absorbance spectra on a UV-vis absorbance spectrophotometer (UV-2600, Shimadzu). The quality of the SWCNT suspension was determined by analyzing absorbance peaks at 632 nm. This measurement was performed with triplicates. The concentration of the PEI-SWCNT was determined spectrophotometrically using the absorption value at 632 nm and utilizing the equation (absorbance at 632 nm/extinction coefficient of 0.036)=mg L^−1. The final concentration obtained after purification ranged from 18 to 30 mg/L. The nanoparticle ζ potential was measured using a Zetasizer (Nano ZS, Malvern Instruments) in samples suspended in 10 mM TES buffer pH 7.0, with 0.1 mM NaCl. The hydrodynamic size was measured using Zetasizer (Nano ZS, Malvern Instruments) in samples suspended in a 10 mM TES buffer at pH 7.
Characterization of Nanomaterials. All nanomaterials were characterized by absorbance UV-vis spectroscopy (UV-2600 Shimadzu), hydrodynamic size (Nano S), and ζ potential (Nano ZS). The nanomaterial ζ potential and hydrodynamic diameter were measured in a 10 mM TES buffer (pH 7.0). The ζ potential measurements were performed in 0.1 mM NaCl to improve conductivity and analyzed by the Hückel approximation model.^111 CD fluorescence emission was collected using a fluorescence spectrometer (Horiba PTI QM-400). The stepwise synthesis of TP-β-CDs was analyzed using FTIR (Thermo Nicolet 6700 FTIR).

| Molecule | localization of FDA in leaf mesophyll tissue [1] | charge of chloroplast targeting peptide [2] [mV] |
| --- | --- | --- |
| O=C(O)c1ccc2c(c1)C1(OC2=O)c2ccc(O)cc2Oc2cc(O)ccc21 [FDA, 6-carboxyfluorescein] | localized near the plasma membrane |  |
| MASSMLSSATMVGGC [chloroplast targeting peptide for CD] |  | −0.1 |
